In US9359311B2, “Substituted aromatic oligomers” (NEUROSCIOS GMBH, priority 2011, dated 2016):
“Also recorded” adds a separate entry of the source.

Columns and labels:
Format in all cases: in vivo, mouse
[1] = biological target: T1, Human Aβ38, Aβ40 and Aβ42 (Homo sapiens, UniProt P05067); experiment: Human Aβ38, Aβ40 and Aβ42 in SDS brain homogenate fraction of hAPPSL Tg mice after 90 days treatment; settings: twice daily i.p., p-FTAA 1 or 10 mg/kg/day, P9707_003 10 mg/kg/day
T1 construct: from tissue; host or cells: CSF and left brain hemisphere (SDS fraction) of transgenic hAPPSL mice
Protocol: (§1) Vehicle: Phosphate Buffered Saline (PBS; 6.7 mM PO4, 155 mM NaCl, pH=7.3-7.5) (BioWhittaker PBS from Lonza).
(§2) Test item (T.I.): p-FTAA and P9707_003 diluted in vehicle from stock solution in deionized water (10 mg/ml).
(§3) Tg hAPPSL: Transgenic hAPPSL mice over-expressing hAPP(751) under the control of the murine Thy-1 promoter with a C57BL/6xDBA background.
(§4) Human Aβ38, Aβ40 and Aβ42 were determined in homogenates of the left brain hemispheres and in CSF samples of all Tg animals by an immunosorbent assay from Mesoscale Discovery
48 hAPP Tg mice plus 4 reserves allocated to 4 different treatment groups were treated with either vehicle only (control), p-FTAA or P9707_003. As an additional control, 12 nTg littermates of the hAPPSL mice (plus 1 reserve) were treated with vehicle only. Starting at 6.5 months of age, female hAPPSL mice were treated with vehicle only, p-FTAA (dosage: 1 or 10 mg/kg/day) or P9707_003 (dosage: 10 mg/kg/day) for 90 days. […]
(§5) In the brain homogenate SDS fraction and in CSF of each Tg mouse, human Aβ38, Aβ40 and Aβ42 levels were measured with a Aβ-kit from Mesoscale Discovery. Aβ levels were evaluated in comparison to a peptide standard as pg/mg brain (wet weight) or pg/ml CSF.
Descriptive statistical analysis was performed on all evaluated parameters. […] Group differences between all Tg groups were calculated by a parametric ANOVA followed by a Bonferroni post test.

[2] = biological target: T1, Human Aβ38, Aβ40 and Aβ42; experiment: Human Aβ38, Aβ40 and Aβ42 in CSF of hAPPSL Tg mice after 90 days treatment (immunosorbent assay); settings: twice daily i.p.
Protocol: as §1, §2, §3, §4
(§6) 48 hAPP Tg mice plus 4 reserves allocated to 4 different treatment groups were treated with either vehicle only (control), p-FTAA or P9707_003. As an additional control, 12 nTg littermates of the hAPPSL mice (plus 1 reserve) were treated with vehicle only. Starting at 6.5 months of age, female hAPPSL mice were treated with vehicle only, p-FTAA (dosage: 1 or 10 mg/kg/day) or P9707_003 (dosage: 10 mg/kg/day) for 90 days. The Test Items (T.I.s) were administered in Vehicle. Compound and vehicle were administered twice daily i.p. for 90 days. Tg hAPPSL mice with a C57BL/6xDBA background and corresponding nTg littermates at an age of 6.5 months (±2 weeks) were randomly assigned to the treatment groups.
as §5
Descriptive statistical analysis was performed on all evaluated parameters. All data were represented as mean±standard error of mean (SEM). Grubb's test was used to detect outliers. Normality distribution of the values was tested with Kolmogorov Smirnov normality distribution test. Group differences between all Tg groups were calculated by a parametric ANOVA followed by a Bonferroni post test.

[3] = system: PHF-tau doubly-phosphorylated at Thr231 and Ser235; experiment: Phosphorylation of Tau in neurites crossing amyloid plaques, AT180 IHC, hAPPSL Tg mice
Protocol: as §1
Test Item (T.I.): p-FTAA and P9707_003, diluted in vehicle from stock solution in deionized water (10 mg/ml).
as §3
as §6, with “(+2” for “(±2”
Histological evaluations were performed with six randomly chosen cryo-frozen brain hemispheres of treatment groups PBS Control, p-FTAA 1 mg/kg/day, p-FTAA 10 mg/kg/day, and P9707_003 10 mg/kg/day.
15 cryo-sections per level (altogether 5 levels), each 10 μm thick (Leica CM 3050S) were sagittally cut. Brain levels were chosen according to the morphology atlas “The Mouse Brain” from Paxinos and Franklin (2nd edition). The cutting of the five levels started with a random slice, then sampling was continued uniformly and systematically, always retaining 15 slices per level in series and discarding 100 μm in between the levels.
TAU phosphorylation was visualized immunohistochemically using the AT180 antibody. Clone AT180 recognizes PHF-tau doubly-phosphorylated at Thr231 and Ser235.
For determination of amyloid depositions 5 slices (1 from each level) per brain were stained and screened. From each slice five images were captured from 5 defined areas in the brain. The order of these positions reflect the time course of plaque deposition in the APPsl model, which starts in the frontal cortex (P11) at the age of 3 months and then spreads to the medial (P12) and dorsal cortex over age. At six months of age, plaques can be found in the medial cortex (P13), from then plaque load spreads into the hippocampal formation with hot spots in the subiculum (P14) and the dentate gyrus (P15) at the age of nine months.
Mosaic images for plaque load quantification including the whole cortex and hippocampus were recorded on a Zeiss AxioImager.Z1 microscope using high aperture lenses and an AxioVision 4.8 software driven AxioCam MRm (10× lens, 1× optocoupler). Plaques for AT180 quantifcation were imaged with a 20× lens. Detail images for qualitative figures are 40× image stacks collapsed to 2D by the extended depth of field function of AxioVision software.
Descriptive statistical analysis was performed on all evaluated parameters, Kolmogorov Smirnov test were performed to test normal distribution of data. Data in graphs are represented as mean±SEM.

T1 sequence (P05067 672-713 limits assumed): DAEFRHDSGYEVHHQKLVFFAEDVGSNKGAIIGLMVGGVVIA

## O=C(O)Cc1ccsc1-c1ccc(-c2sc(-c3ccc(-c4cc(CC(=O)O)c(-c5ccc(-c6sccc6CC(=O)O)s5)s4)s3)cc2CC(=O)O)s1 [Example 1, 2-(2-{5-[3-(Carboxymethyl)-5-{5-[4-(carboxymethyl)-5-{5-[3-(carboxymethyl)thiophen-2-yl]thiophen-2-yl}thiophen-2-yl]thiophen-2-yl}thiophen-2-yl]thiophen-2-yl}thiophen-3-yl)acetic acid]
[1]
  aggregated Aβ38, Aβ40 and Aβ42 in SDS fraction of brain homogenate: significant decrease; also recorded: reduced
[2]; 10 mg/kg/day, female hAPPSL Tg mice, Aβ38, Aβ40, Aβ42, % of vehicle control
  Mean Aβ levels in CSF, relative to vehicle control (PBS control): about 60%
[2]; hAPPSL Tg mice, p-FTAA 1 or 10 mg/kg/day, P9707_003 10 mg/kg/day
  CSF Aβ levels: decreased
[3]; 10 mg P9707_003 treatment, plaque sides 2 and 4
  AT180 load: significant reduction
[3]; 90 days i.p., hAPPSL Tg mice
  AT180 IR in plaques of younger history of origin (hippocampal formation, subiculum, dentate gyrus): drastically reduced
[3]; P9707_003 10 mg/kg/day, 90 days i.p.
  AT180 load at hippocampal plaques, reduced to: approximately 45%
[3]; P9707_003 10 mg/kg/day, 90 days i.p., positions 4 and 5
  reduction of AT180: more than 40%
